Tests used:
Glycine receptor = Glycine receptor (Rattus norvegicus, UniProt P22771+P24524+P07727+P20781); assay type: cell membranes, Wistar, Spinal cord, Membrane; note: in other assays of this panel Not Active means under 50% inhibition at 10 µM
[1] = DRUGMATRIX: Purinergic P2X radioligand binding (ligand: [3H] alpha, beta-Methylene-ATP); assay type: cell membranes, Oryctolagus cuniculus, New Zealand albino, Urinary bladder, Membrane; conditions: Not Active = under 50% inhibition at 10 µM
Cytochrome P450 2C19 = Cytochrome P450 2C19 (Homo sapiens, UniProt P33261); note: in other assays of this panel Not Active means under 50% inhibition at 10 µM
[2] = molecular target: Tyrosine-protein kinase Fyn (Homo sapiens, UniProt P06241); assay: biochemical; assay type: cell-based, Insect cells; conditions: insect cells;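 note: enzymatic inhibition of Fyn kinase activity measured with Poly(Glu:Tyr) as the phosphorylation substrate; in other assays of this panel Not Active means under 50% inhibition at 10 µM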
Glucocorticoid receptor = molecular target: T1, Glucocorticoid receptor (Homo sapiens, UniProt P04150); assay: biochemical; note: in other assays of this panel Not Active means under 50% inhibition at 10 µM
T1 sequence (P04150 whole entry): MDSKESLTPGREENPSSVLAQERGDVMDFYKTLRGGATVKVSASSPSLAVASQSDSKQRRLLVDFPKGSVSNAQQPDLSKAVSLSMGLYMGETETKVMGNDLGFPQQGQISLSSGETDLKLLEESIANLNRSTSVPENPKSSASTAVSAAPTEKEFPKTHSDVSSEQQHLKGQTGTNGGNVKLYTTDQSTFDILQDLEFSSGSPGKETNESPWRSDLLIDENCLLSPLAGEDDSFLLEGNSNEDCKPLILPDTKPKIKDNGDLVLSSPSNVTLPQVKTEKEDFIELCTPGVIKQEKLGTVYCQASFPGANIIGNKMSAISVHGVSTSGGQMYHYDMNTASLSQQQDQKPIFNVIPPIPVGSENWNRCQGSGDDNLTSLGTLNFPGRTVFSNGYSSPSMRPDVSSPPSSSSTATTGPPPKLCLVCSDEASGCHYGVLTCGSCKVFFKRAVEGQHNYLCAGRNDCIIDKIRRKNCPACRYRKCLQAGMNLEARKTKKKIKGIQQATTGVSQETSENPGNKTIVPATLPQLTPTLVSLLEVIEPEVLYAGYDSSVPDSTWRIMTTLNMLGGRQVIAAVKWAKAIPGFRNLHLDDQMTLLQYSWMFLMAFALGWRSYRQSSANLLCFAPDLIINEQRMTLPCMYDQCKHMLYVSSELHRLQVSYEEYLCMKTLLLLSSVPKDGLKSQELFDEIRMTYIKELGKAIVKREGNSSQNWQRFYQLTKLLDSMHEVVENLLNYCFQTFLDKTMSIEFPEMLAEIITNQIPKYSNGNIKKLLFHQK

[3] = molecular target: Voltage-gated inwardly rectifying potassium channel KCNH2 (Homo sapiens, UniProt Q12809); note: in other assays of this panel Not Active means under 50% inhibition at 10 µM
Cytochrome P450 1A2 = molecular target: T2, Cytochrome P450 1A2 (Homo sapiens, UniProt P05177); note: in other assays of this panel Not Active means under 50% inhibition at 10 µM
T2 sequence (P05177 whole entry): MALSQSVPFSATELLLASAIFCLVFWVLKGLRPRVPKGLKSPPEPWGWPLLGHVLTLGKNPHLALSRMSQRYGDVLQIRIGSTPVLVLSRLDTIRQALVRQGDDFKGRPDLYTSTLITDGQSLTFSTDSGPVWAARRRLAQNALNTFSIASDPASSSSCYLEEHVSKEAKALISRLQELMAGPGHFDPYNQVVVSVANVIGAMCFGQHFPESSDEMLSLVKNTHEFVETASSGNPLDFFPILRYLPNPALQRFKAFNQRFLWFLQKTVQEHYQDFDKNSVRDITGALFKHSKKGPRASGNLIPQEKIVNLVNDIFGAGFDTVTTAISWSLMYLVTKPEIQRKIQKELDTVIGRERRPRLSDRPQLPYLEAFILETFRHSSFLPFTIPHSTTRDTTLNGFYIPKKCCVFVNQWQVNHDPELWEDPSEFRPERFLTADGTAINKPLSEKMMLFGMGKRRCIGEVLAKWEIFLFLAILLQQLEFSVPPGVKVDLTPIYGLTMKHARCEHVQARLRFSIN

Androgen receptor = molecular target: T3, Androgen receptor (Rattus norvegicus, UniProt P15207); note: in other assays of this panel Not Active means under 50% inhibition at 10 µM
T3 sequence (P15207 whole entry): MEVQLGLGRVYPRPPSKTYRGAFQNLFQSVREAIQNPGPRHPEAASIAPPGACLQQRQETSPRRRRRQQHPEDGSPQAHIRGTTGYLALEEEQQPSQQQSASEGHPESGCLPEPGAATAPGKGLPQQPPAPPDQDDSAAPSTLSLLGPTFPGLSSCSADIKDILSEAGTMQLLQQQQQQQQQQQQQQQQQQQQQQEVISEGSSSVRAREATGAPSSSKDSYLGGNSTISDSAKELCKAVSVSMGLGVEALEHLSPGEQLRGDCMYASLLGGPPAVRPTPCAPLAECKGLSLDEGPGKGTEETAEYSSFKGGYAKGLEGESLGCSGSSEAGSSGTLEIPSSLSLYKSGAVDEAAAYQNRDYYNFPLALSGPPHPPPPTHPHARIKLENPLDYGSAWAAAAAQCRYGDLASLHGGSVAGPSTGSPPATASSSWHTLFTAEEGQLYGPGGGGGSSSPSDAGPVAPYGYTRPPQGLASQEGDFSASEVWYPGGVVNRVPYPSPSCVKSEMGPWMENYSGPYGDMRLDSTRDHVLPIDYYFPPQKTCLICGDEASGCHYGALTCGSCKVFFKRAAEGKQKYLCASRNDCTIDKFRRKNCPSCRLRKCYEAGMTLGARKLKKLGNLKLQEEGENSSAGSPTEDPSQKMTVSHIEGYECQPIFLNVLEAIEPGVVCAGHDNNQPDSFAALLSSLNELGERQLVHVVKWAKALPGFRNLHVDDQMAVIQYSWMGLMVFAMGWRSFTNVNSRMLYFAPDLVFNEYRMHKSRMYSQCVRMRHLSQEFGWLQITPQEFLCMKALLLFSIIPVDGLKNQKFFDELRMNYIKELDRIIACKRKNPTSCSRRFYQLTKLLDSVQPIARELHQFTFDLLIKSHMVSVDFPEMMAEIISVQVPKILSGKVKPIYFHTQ

Cytochrome P450 2C9 = Cytochrome P450 2C9 (Homo sapiens, UniProt P11712); note: in other assays of this panel Not Active means under 50% inhibition at 10 µM
Cytochrome P450 2C9, sequence (P11712 whole entry): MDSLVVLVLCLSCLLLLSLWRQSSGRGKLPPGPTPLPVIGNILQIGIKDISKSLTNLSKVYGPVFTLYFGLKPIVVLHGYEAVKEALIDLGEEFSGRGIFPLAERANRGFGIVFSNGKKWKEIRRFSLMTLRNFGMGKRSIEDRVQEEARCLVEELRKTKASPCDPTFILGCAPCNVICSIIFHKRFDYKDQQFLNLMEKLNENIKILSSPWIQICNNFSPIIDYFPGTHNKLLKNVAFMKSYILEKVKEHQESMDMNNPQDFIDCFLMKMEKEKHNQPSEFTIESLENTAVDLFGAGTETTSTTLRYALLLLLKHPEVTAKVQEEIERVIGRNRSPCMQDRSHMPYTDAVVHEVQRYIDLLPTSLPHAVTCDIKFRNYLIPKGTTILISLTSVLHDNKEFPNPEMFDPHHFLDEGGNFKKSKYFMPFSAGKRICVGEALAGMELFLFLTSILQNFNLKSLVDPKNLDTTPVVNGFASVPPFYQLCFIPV

Tyrosine-protein kinase Fyn, sequence (P06241 whole entry): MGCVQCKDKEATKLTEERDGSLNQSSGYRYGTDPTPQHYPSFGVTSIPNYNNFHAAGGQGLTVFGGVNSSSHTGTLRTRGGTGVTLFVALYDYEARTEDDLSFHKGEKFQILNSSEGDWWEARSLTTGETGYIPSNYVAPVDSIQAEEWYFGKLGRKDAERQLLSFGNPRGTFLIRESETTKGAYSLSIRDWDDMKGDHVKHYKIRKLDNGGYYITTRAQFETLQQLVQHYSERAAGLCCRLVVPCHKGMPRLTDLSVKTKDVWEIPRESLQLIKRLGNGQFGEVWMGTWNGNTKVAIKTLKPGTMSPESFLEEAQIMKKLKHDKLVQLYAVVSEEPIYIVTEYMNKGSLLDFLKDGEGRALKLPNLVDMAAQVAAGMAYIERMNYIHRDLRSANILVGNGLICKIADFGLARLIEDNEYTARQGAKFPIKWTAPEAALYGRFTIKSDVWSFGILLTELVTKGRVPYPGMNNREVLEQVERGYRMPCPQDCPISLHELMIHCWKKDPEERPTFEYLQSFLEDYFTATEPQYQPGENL
Cytochrome P450 2C19, sequence (P33261 whole entry): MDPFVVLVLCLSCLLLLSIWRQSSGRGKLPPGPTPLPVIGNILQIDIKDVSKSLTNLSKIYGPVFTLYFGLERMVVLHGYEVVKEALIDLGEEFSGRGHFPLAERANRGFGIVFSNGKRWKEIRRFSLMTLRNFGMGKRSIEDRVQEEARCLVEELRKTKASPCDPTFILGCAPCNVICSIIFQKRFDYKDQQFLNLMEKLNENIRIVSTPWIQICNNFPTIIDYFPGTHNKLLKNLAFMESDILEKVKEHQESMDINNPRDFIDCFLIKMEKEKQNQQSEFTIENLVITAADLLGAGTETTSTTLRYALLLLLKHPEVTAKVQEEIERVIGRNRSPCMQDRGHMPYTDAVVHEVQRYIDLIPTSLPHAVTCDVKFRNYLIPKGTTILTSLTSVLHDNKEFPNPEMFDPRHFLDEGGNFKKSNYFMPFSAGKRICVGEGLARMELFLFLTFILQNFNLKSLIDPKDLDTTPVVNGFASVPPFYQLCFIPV
Voltage-gated inwardly rectifying potassium channel KCNH2, sequence (Q12809 whole entry): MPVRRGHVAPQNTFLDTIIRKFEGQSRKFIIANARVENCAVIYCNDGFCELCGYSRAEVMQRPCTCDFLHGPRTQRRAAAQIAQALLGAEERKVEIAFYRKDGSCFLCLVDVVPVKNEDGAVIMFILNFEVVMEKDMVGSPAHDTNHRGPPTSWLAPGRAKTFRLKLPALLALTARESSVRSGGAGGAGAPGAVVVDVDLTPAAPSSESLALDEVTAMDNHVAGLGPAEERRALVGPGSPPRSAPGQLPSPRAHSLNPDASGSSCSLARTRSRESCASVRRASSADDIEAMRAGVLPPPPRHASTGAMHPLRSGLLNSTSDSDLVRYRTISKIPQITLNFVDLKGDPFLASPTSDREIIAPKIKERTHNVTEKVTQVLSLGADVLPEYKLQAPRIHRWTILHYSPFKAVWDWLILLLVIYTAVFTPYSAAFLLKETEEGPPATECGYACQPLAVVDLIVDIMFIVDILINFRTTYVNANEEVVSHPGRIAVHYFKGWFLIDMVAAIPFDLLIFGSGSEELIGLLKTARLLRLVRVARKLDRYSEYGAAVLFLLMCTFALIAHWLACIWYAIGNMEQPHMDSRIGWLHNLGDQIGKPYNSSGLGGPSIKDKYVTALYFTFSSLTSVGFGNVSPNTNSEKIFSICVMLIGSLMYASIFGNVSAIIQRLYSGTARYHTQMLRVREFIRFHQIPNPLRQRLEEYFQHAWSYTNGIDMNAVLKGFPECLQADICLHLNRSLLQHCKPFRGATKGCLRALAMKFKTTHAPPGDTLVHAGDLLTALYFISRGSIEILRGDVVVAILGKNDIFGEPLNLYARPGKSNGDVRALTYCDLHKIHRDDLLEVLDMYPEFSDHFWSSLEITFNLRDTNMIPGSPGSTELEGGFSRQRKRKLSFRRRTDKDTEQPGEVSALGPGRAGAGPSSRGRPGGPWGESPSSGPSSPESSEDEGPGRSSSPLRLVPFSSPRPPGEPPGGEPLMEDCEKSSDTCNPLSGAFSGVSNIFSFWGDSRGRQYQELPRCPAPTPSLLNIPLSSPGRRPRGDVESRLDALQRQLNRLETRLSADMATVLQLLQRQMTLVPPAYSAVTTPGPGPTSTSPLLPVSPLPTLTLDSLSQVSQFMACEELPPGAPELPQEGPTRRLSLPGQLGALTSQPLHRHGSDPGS

| Structure (SMILES) | IC50 (Glycine receptor) | IC50 [1] | Ki [1] | IC50 (Cytochrome P450 2C19) [µM] | IC50 [2] | IC50 (Glucocorticoid receptor) [µM] | Ki (Glucocorticoid receptor) [µM] | IC50 [3] [µM] | Ki [3] [µM] | IC50 (Cytochrome P450 1A2) [µM] | IC50 (Androgen receptor) | IC50 (Cytochrome P450 2C9) [µM] |
| --- | --- | --- | --- | --- | --- | --- | --- | --- | --- | --- | --- | --- |
| CC(=O)[C@@]1(O)CC[C@H]2[C@@H]3C[C@H](C)C4=CC(=O)CC[C@]4(C)[C@H]3CC[C@@]21C | Not Active | Not Active | Not Active | 2 | Not Active | 0.019 | 0.0086 |  |  |  |  |  |
| C[C@@H]1CN(c2c(F)c(N)c3c(=O)c(C(=O)O)cn(C4CC4)c3c2F)C[C@H](C)N1 [SPARFLOXACIN] | Not Active | Not Active | Not Active |  | Not Active |  |  | 47.1 | 38.6 |  |  |  |
| CSc1ccc(/C=C2/C(C)=C(CC(=O)O)c3cc(F)ccc32)cc1 [SULINDAC SULFIDE] | Not Active | Not Active | Not Active |  | Not Active |  |  |  |  | 2 | Not Active |  |
| Cc1cccc(N(C)C(=S)Oc2ccc3ccccc3c2)c1 [TOLNAFTATE] | Not Active | Not Active | Not Active | 3 | Not Active |  |  |  |  |  |  |  |
| Cc1c(C)c2c(c(C)c1O)CCC(C)(COc1ccc(CC3SC(=O)NC3=O)cc1)O2 (stereo not given) [TROGLITAZONE] | Not Active | Not Active | Not Active |  | Not Active |  |  |  |  |  | Not Active | 4 |
